{
  "source": "ChEMBL document CHEMBL6177981",
  "about": "“Bardoxolone Derivatives as Novel Pseudo-Natural Necroptosis Inhibitors by Destabilizing HSP90 Client Proteins” (J Med Chem, 2025)",
  "key": {"[1]": {"target": "T1, Receptor-interacting serine/threonine-protein kinase 1 (Homo sapiens) (UniProt Q13546)", "T1 sequence (whole entry)": "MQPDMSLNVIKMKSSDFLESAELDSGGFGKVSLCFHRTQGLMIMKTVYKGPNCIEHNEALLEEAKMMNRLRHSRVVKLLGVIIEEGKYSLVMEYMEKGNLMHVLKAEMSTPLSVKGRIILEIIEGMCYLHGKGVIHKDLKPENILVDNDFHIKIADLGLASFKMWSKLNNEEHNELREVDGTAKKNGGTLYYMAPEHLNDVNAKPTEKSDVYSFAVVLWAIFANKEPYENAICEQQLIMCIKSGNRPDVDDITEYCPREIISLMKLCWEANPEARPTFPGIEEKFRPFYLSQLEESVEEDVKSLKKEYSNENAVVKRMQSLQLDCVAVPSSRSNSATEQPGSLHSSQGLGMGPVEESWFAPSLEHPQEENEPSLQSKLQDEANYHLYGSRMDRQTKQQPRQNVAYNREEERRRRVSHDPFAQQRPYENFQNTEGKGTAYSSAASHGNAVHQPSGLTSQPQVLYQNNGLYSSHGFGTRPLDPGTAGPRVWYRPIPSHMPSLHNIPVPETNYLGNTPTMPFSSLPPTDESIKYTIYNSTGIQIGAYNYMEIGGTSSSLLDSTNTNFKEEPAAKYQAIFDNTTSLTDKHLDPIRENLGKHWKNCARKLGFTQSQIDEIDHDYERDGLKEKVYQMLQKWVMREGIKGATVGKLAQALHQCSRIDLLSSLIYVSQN", "assay": "Inhibition of RIPK1 phosphorylation in TSZ-induced human HT-29 cells at 10 uM preincubated with compound followed by Z-VAD-FMK, SM164 and TNFalpha stimulation and measured within 6 hrs by Western blot analysis relative to control", "type": "cell-based"}, "[2]": {"assay": "Acute toxicity in male C57BL/6J mouse assessed as structural changes in intestine at 2 g/Kg, IG measured after 72 hrs by H and E staining based analysis", "type": "tissue-based", "conditions": "in vivo, po, 2000 mg/kg"}, "[3]": {"tested_on": "L929", "assay": "Anti-necroptotic activity in TZ-induced mouse L929 cells assessed as increase in cell survival at 10 uM measured after 12 hrs by Live-cell super-resolution panoramic microscopic analysis", "type": "functional, cell-based"}, "[4]": {"tested_on": "HT-29", "assay": "Downregulation of RIPK1 protein level in human HT-29 cell precipitate at 6 uM measured after 9 hrs by Western blot analysis", "type": "functional, cell-based"}, "[5]": {"assay": "Acute toxicity in male C57BL/6J mouse assessed as survival at 2 g/Kg, po measured within 72 hrs relative to control", "type": "organism-based", "conditions": "in vivo, 2000 mg/kg"}, "[6]": {"tested_on": "HT-29", "assay": "Downregulation of MLKL protein level in human HT-29 cells at 6 uM preincubated with MG132 for 2 hrs followed by compound addition and measured after 9 hrs by Western blot analysis", "type": "functional, cell-based"}, "[7]": {"target": "Receptor-interacting serine/threonine-protein kinase 3 (Homo sapiens) (UniProt Q9Y572)", "sequence (Q9Y572 whole entry, looked up)": "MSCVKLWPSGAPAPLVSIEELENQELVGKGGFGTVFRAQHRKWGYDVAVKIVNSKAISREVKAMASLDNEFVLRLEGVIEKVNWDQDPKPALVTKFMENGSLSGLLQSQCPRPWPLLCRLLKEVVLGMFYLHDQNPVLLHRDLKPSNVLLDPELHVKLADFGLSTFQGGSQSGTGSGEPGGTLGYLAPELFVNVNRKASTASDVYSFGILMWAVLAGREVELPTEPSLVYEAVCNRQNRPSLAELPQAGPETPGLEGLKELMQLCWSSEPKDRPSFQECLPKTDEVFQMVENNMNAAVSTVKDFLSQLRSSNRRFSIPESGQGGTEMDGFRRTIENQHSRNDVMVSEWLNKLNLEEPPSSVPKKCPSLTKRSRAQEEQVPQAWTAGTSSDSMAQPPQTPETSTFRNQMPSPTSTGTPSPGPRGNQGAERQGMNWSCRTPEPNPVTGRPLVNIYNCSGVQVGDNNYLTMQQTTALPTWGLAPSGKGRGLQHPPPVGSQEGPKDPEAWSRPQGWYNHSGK", "assay": "Inhibition of RIPK3 phosphorylation at S227 residue in TSZ-induced human HT-29 cells at 10 uM preincubated with compound followed by Z-VAD-FMK, SM164 and TNFalpha stimulation and measured after 6 hrs by Western blot analysis", "type": "cell-based"}, "[8]": {"tested_on": "Mus musculus", "assay": "(§1) Anti-necroptotic activity in TNFalpha/Z-VAD-FMK induced SIRS male C57BL/6J mouse model assessed as protection from hypothermia at 2.5 to 10 mg/kg, po pre-administered with compound via gavage for 2 hrs followed by […] of Z-VAD-FMK stimulation for 15 mins with subsequent TNF-alpha stimulation for 1 hrs and re-current […] of Z-VAD-FMK stimulation and measured after 8 hrs post SIRS induction", "type": "functional, organism-based", "conditions": "dose 2.5-10 mg/kg, time 10.0 hrs"}, "[9]": {"tested_on": "Mus musculus", "assay": "as §1, with “survival rate” for “protection from hypothermia”, “5” for “2.5 to 10”, “induction relative to control” for “induction”", "type": "functional", "conditions": "time 10 hrs"}, "[10]": {"tested_on": "HT-29", "assay": "Effect on RIPK3 protein level in human HT-29 cell precipitate at 6 uM measured after 9 hrs by Western blot analysis", "type": "functional, cell-based"}, "[11]": {"target": "Heat shock protein HSP90 (Homo sapiens) (UniProt P07900+P08238)", "assay": "Inhibition of HSP90 in TSZ-induced human HT-29 cells assessed as reduction in EGFR protein level at 10 uM preincubated with compound followed by Z-VAD-FMK, SM164 and TNFalpha stimulation and measured after 6 hrs by Western blot analysis", "type": "cell-based"}, "[12]": {"tested_on": "HT-29", "assay": "Downregulation of RIPK3 protein level in human HT-29 cells at 6 uM preincubated with MG132 for 2 hrs followed by compound addition and measured after 9 hrs by Western blot analysis", "type": "functional, cell-based"}, "[13]": {"tested_on": "HT-29", "assay": "Anti-necroptotic activity in TSZ-induced human HT-29 cells assessed as cell survival at 10 uM measured after 12 hrs by Live-cell super-resolution panoramic microscopic analysis (reference value: 8 hrs)", "type": "functional"}, "[14]": {"assay": "Acute toxicity in male C57BL/6J mouse assessed as hemorrhage in stomach at 2 g/Kg, IG measured after 72 hrs by H and E staining based analysis", "type": "tissue-based", "conditions": "in vivo, po, 2000 mg/kg"}, "[15]": {"tested_on": "Mus musculus", "assay": "as §1, with “reduction in IL-1beta in serum” for “protection from hypothermia at 2.5 to 10 mg/kg, po”, “pre-administered orally” for “pre-administered”, “induction by ELISA” for “induction”", "type": "functional, organism-based", "conditions": "dose 2.5-10 mg/kg, route po, time 10.0 hrs"}, "[16]": {"tested_on": "HeLa", "assay": "Inhibition of MLKL protein expression in RIPK3-deficient human HeLa cells at 0.75 to 6 uM incubated for 9 hrs by Western blot analysis", "type": "functional, cell-based", "conditions": "dose 0.75-6 µM"}, "[17]": {"assay": "Acute toxicity in male C57BL/6J mouse assessed as effect on ALP level at 2 g/Kg, IG measured after 72 hrs", "conditions": "in vivo, po, 2000 mg/kg"}, "[18]": {"assay": "Acute toxicity in male C57BL/6J mouse assessed as hemorrhage in intestine at 2 g/Kg, IG measured after 72 hrs by H and E staining based analysis", "type": "tissue-based", "conditions": "in vivo, po, 2000 mg/kg"}, "[19]": {"tested_on": "Mus musculus", "assay": "as §1, with “reduction in IL6 in intestine” for “protection from hypothermia”, “5” for “2.5”, “induction by ELISA” for “induction”", "type": "functional, organism-based", "conditions": "dose 5-10 mg/kg, time 10.0 hrs"}, "[20]": {"target": "Heat shock protein HSP 90-alpha (Homo sapiens, UniProt P07900)", "assay": "Binding affinity to N-terminal 6His/SUMO-tagged recombinant human HS90AA1 assessed as dissociation constant incubated for 30 mins by MST analysis"}, "[21]": {"tested_on": "HT-29", "assay": "Downregulation of RIPK3 protein level in human HT-29 cell supernatant at 6 uM measured after 9 hrs by Western blot analysis", "type": "functional, cell-based"}, "[22]": {"tested_on": "Mus musculus", "assay": "as §1, with “reduction in IL-1beta in spleen” for “protection from hypothermia”, “5” for “2.5”, “induction by ELISA” for “induction”", "type": "functional, organism-based", "conditions": "dose 5-10 mg/kg, time 10.0 hrs"}, "[23]": {"assay": "Acute toxicity in male C57BL/6J mouse assessed as inflammatory cell infiltration in brain at 2 g/Kg, IG measured after 72 hrs by H and E staining based analysis", "type": "tissue-based", "conditions": "in vivo, po, 2000 mg/kg"}, "[24]": {"tested_on": "HeLa", "assay": "Inhibition of RIPK1 protein expression in RIPK3-deficient human HeLa cells at 6 uM preincubated with NH4Cl for 2 hrs followed by compound addition and measured after 9 hrs by Western blot analysis", "type": "functional, cell-based"}},
  "note": "Activity calls are given as the source filed them. The rule behind the calls is not given here.",
  "data": [
    {"smiles": "Cn1ccc(-c2ccc(NC(=O)[C@]34CCC(C)(C)C[C@H]3[C@H]3C(=O)C=C5[C@@]6(C)C=C(C#N)C(=O)C(C)(C)[C@@H]6CC[C@@]5(C)[C@]3(C)CC4)cc2)n1", "values": [
      {"measurement": "inhibition", "setting": "[1]", "result": 100, "unit": "%"},
      {"measurement": "Activity", "setting": "[2]", "result": "Non-toxic"},
      {"measurement": "Activity", "setting": "[3]", "result": "Active"},
      {"measurement": "Activity", "setting": "[4]", "result": "inactive"},
      {"measurement": "survival at 72 h", "setting": "[5]", "result": 100, "unit": "%"},
      {"measurement": "Activity", "setting": "[6]", "result": "Active"},
      {"measurement": "inhibition", "setting": "[7]", "result": "Active"},
      {"measurement": "Activity", "setting": "[8]", "result": "Active"},
      {"measurement": "survival at 5 mg/kg", "setting": "[9]", "result": 58, "unit": "%"},
      {"measurement": "Activity", "setting": "[10]", "result": "inactive"},
      {"measurement": "inhibition", "setting": "[11]", "result": "Active"},
      {"measurement": "Activity", "setting": "[12]", "result": "Active"},
      {"measurement": "Survival", "setting": "[13]", "result": 9, "unit": "h"},
      {"measurement": "Activity", "setting": "[14]", "result": "Non-toxic"},
      {"measurement": "Activity", "setting": "[15]", "result": "Dose-dependent-effect"},
      {"measurement": "inhibition", "setting": "[16]", "result": "Active"},
      {"measurement": "Activity", "setting": "[17]", "result": "Non-toxic"},
      {"measurement": "Activity", "setting": "[18]", "result": "Non-toxic"},
      {"measurement": "Activity", "setting": "[19]", "result": "Active"},
      {"measurement": "Kd", "setting": "[20]", "result": 0.185, "unit": "µM"},
      {"measurement": "Activity", "setting": "[21]", "result": "Active"},
      {"measurement": "Activity", "setting": "[22]", "result": "Active"},
      {"measurement": "Activity", "setting": "[23]", "result": "Non-toxic"},
      {"measurement": "inhibition", "setting": "[24]", "result": "Active"}
    ]}
  ]
}
